For this test, the target named is PD-1/PD-L1 protein/protein interaction (Homo sapiens (Human), UniProt Q9NZQ7). The test is described as follows: PD-1/PD-L1 Homogeneous Time-Resolved Fluorescence (HTRF) Binding Assay. Particulars: recombinant human PD-L1 (19-238) His-tag 10 nM, human PD-1 (25-167) Fc tag 3 nM, 25° C., PBS pH 7.4. Here is the method: The assays were conducted in a standard black 384-well polystyrene plate with a final volume of 20 μL. Inhibitors were first serially diluted in DMSO and then added to the plate wells before the addition of other reaction components. The final concentration of DMSO in the assay was 1%. The assays were carried out at 25° C. in the PBS buffer (pH 7.4) with 0.05% Tween-20 and 0.1% BSA. Recombinant human PD-L1 protein (19-238) with a His-tag at the C-terminus was purchased from AcroBiosystems (PD1-H5229). Recombinant human PD-1 protein (25-167) with Fc tag at the C-terminus was also purchased from AcroBiosystems (PD1-H5257). PD-L1 and PD-1 proteins were diluted in the assay buffer and 10 μL was added to the plate well. Plates were centrifuged and proteins were preincubated with inhibitors for 40 minutes. The incubation was followed by the addition of 10 μL of HTRF detection buffer supplemented with Europium cryptate-labeled anti-human IgG (PerkinElmer-AD0212) specific for Fc and anti-His antibody conjugated to SureLight®-Allophycocyanin (APC, PerkinElmer-AD0059H). After centrifugation, the plate was incubated at 25° C. for 60 min. before reading on a PHERAstar FS plate reader (665 nm/620 nm ratio). Final concentrations in the assay were—3 nM PD1, 10 nM PD-L1, 1 nM europium anti-human IgG and 20 nM anti-His-Allophycocyanin. IC50 determination was performed by fitting the curve of percent control activity versus the log of the inhibitor concentration using the GraphPad Prism 5.0 software.
PD-1/PD-L1 protein/protein interaction, sequence (Q9NZQ7 19-238): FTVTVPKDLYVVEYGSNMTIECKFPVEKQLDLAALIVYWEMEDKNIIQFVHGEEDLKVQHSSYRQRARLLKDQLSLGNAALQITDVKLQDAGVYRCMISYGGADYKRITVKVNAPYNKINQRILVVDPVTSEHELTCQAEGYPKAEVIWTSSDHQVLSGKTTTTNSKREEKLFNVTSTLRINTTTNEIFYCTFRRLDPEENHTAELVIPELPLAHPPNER

In the case of `Cc1c(NC(=O)c2ncc(CN3CCCC[C@H]3C(=O)O)s2)cccc1-c1ccccc1` [Example 1, (2S)-1-[(2-{[(2-methylbiphenyl-3-yl)amino]carbonyl}-1,3-thiazol-5-yl)methyl]piperidine-2-carboxylic acid], the half-maximal inhibitory concentration (IC50) was at most 100 nM.
Under `Cc1c(NC(=O)c2ncc(CNCCO)s2)cccc1-c1ccccc1` [Example 2, 5-{[(2-hydroxyethyl)amino]methyl}-N-(2-methylbiphenyl-3-yl)-1,3-thiazole-2-carboxamide] stands at most 100 nM; under `Cc1c(NC(=O)c2ncc(CNCCO)o2)cccc1-c1ccccc1` [Example 3, 5-{[(2-hydroxyethyl)amino]methyl}-N-(2-methylbiphenyl-3-yl)-1,3-oxazole-2-carboxamide], 100 to 500 nM; under `Cc1c(NC(=O)c2ncc(CN3CCCC[C@H]3C(=O)O)n2C)cccc1-c1ccccc1` [Example 4, (2S)-1-[(1-methyl-2-{[(2-methylbiphenyl-3-yl)amino]carbonyl}-1H-imidazol-5-yl)methyl]piperidine-2-carboxylic acid], 100 to 500 nM.
In the case of `Cc1c(NC(=O)c2ncc(CNCCO)n2C)cccc1-c1ccccc1` [Example 5, 5-{[(2-hydroxyethyl)amino]methyl}-1-methyl-N-(2-methylbiphenyl-3-yl)-1H-imidazole-2-carboxamide] it was at most 100 nM.
In the case of `Cc1c(NC(=O)c2cc(CN3CCCC[C@H]3C(=O)O)n(C)n2)cccc1-c1ccccc1` [Example 6, (2S)-1-[(1-methyl-3-{[(2-methylbiphenyl-3-yl)amino]carbonyl}-1H-pyrazol-5-yl)methyl]piperidine-2-carboxylic acid] it was at most 100 nM.
Consider `Cc1c(NC(=O)c2cc(CNCCO)n(C)n2)cccc1-c1ccccc1` [Example 7, 5-{[(2-hydroxyethyl)amino]methyl}-1-methyl-N-(2-methylbiphenyl-3-yl)-1H-pyrazole-3-carboxamide], for which the concentration for half-maximal inhibition (IC50) is at most 100 nM.
Under `Cc1c(NC(=O)c2nc(Cl)c(CNCCO)s2)cccc1-c1ccccc1` [Example 8, 4-chloro-5-{[(2-hydroxyethyl)amino]methyl}-N-(2-methylbiphenyl-3-yl)-1,3-thiazole-2-carboxamide] stands at most 100 nM; under `Cc1nc(C(=O)Nc2cccc(-c3ccccc3)c2C)sc1CNCCO` [Example 9, 5-{[(2-hydroxyethyl)amino]methyl}-4-methyl-N-(2-methylbiphenyl-3-yl)-1,3-thiazole-2-carboxamide], at most 100 nM.
In the case of `Cn1nc(C(=O)Nc2cccc(-c3ccc4c(c3)OCCO4)c2C#N)cc1CNCCO` [Example 10, N-[2-cyano-3-(2,3-dihydro-1,4-benzodioxin-6-yl)phenyl]-5-{[1(2-hydroxyethyl)amino]methyl}-1-methyl-1H-pyrazole-3-carboxamide], the IC50 is at most 100 nM.
In the case of `Cn1nc(C(=O)Nc2cccc(-c3ccccc3F)c2C#N)cc1CNCCO` [Example 11, N-(2-cyano-2′-fluorobiphenyl-3-yl)-5-{[(2-hydroxyethyl)amino]methyl}-1-methyl-1H-pyrazole-3-carboxamide] it was at most 100 nM; in that of `COc1cccc(-c2cccc(NC(=O)c3cc(CNCCO)n(C)n3)c2C#N)c1F` [Example 12, N-(2-cyano-2′-fluoro-3′-methoxybiphenyl-3-yl)-5-{[(2-hydroxyethyl)amino]methyl}-1-methyl-1H-pyrazole-3-carboxamide], at most 100 nM; in that of `Cn1nc(C(=O)Nc2cccc(-c3cccc4c3cnn4C)c2C#N)cc1CNCCO` [Example 13, N-[2-cyano-3-(1-methyl-1H-indazol-4-yl)phenyl]-5-{[(2-hydroxyethyl)amino]methyl}-1-methyl-1H-pyrazole-3-carboxamide], at most 100 nM.
Under `Cn1c(CNCCO)cnc1C(=O)Nc1cccc(-c2ccc3c(c2)OCCO3)c1C#N` [Example 14, N-[2-cyano-3-(2,3-dihydro-1,4-benzodioxin-6-yl)phenyl]-5-{[1(2-hydroxyethyl)amino]methyl}-1-methyl-1H-imidazole-2-carboxamide] stands at most 100 nM; under `COc1cccc(-c2cccc(NC(=O)c3ncc(CNCCO)n3C)c2C#N)c1F` [Example 15, N-(2-cyano-2′-fluoro-3′-methoxybiphenyl-3-yl)-5-{[(2-hydroxyethyl)amino]methyl}-1-methyl-1H-imidazole-2-carboxamide], at most 100 nM.
Take `Cn1c(CNCCO)cnc1C(=O)Nc1cccc(-c2cccc3c2cnn3C)c1C#N` [Example 16, N-[2-cyano-3-(1-methyl-1H-indazol-4-yl)phenyl]-5-{[(2-hydroxyethyl)amino]methyl}-1-methyl-1H-imidazole-2-carboxamide]: the IC50 was in the range of 100 to 500 nM.
In the case of `Cc1c(COc2cc(OCc3cncc(C#N)c3)c(CN3CCCC[C@H]3C(=O)O)cc2Cl)cccc1-c1cccc(NC(=O)c2ncc(CNCCO)s2)c1C` [Example 17, (S)-1-(5-chloro-2-((5-cyanopyridin-3-yl)methoxy)-4-((3′-(5-(((2-hydroxyethyl)amino)methyl)thiazole-2-carboxamido)-2,2′-dimethyl-[1,1′-biphenyl]-3-yl)methoxy)benzyl)piperidine-2-carboxylic acid] it was at most 100 nM; in that of `Cc1c(COc2cc(OCc3cncc(C#N)c3)c(CN3CCCC[C@H]3C(=O)O)cc2Cl)cccc1-c1cccc(NC(=O)c2ncc(CN3CC[C@@H](O)C3)s2)c1C` [Example 18, (S)-1-(5-chloro-2-((5-cyanopyridin-3-yl)methoxy)-4-((3′-(5-(((R)-3-hydroxypyrrolidin-1-yl)methyl)thiazole-2-carboxamido)-2,2′-dimethyl-[1,1′-biphenyl]-3-yl)methoxy)benzyl)piperidine-2-carboxylic acid], at most 100 nM; in that of `Cc1c(NC(=O)c2cc(CN3CC[C@@H](O)C3)n(C)n2)cccc1-c1cccc(NC(=O)c2ncc(CN3CC[C@@H](O)C3)s2)c1C` [Example 19, 5-(((R)-3-hydroxypyrrolidin-1-yl)methyl)-N-(3′-(5-(((R)-3-hydroxypyrrolidin-1-yl)methyl)-1-methyl-1H-pyrazole-3-carboxamido)-2,2′-dimethyl-[1,1′-biphenyl]-3-yl)thiazole-2-carboxamide], at most 100 nM.
